Test results as given in the supplement of paper PMC10307832.

Assays:
Test in all cases: relative viability (nuclei count vs DMSO), 5 days (fraction); higher = more cells survive
[1] = compound: C1=CC2=C(C=C(C(=C2N=C1)O)N=NC3=CC4=C(C=C3)C=C(C=C4)S(=O)(=O)O)S(=O)(=O)O + CS(=O)(=O)CCNCc1ccc(-c2ccc3ncnc(Nc4ccc(OCc5cccc(F)c5)c(Cl)c4)c3c2)o1 [Lapatinib] (partner 2 µM)
How it was run: (§1)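 Relative viability divides the nuclei count in treated wells by that in vehicle wells. Lung cancer cell lines were seeded in 1536-well plates, dosed by pin tool the next day, and fixed and stained after 5 days in one step with final 0.05% Triton X-100, 1% formaldehyde and 1 ug/ml Hoechst. Dosing was a single drug or a fixed anchor-drug dose plus five library-drug doses (not always all listed) in √10 steps, and values are medians of duplicate plates imaged at 4×.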

AT-7519 + Alpelisib = compound: O=C(NC1CCNCC1)c1n[nH]cc1NC(=O)c1c(Cl)cccc1Cl [AT-7519] + Cc1nc(NC(=O)N2CCC[C@H]2C(N)=O)sc1-c1ccnc(C(C)(C)C(F)(F)F)c1 [Alpelisib] (partner 2 µM)
How it was run: as §1

AT-7519 + Olaparib = compound: O=C(NC1CCNCC1)c1n[nH]cc1NC(=O)c1c(Cl)cccc1Cl [AT-7519] + O=C(c1cc(Cc2n[nH]c(=O)c3ccccc23)ccc1F)N1CCN(C(=O)C2CC2)CC1 [Olaparib] (partner 8 µM)
How it was run: as §1

AT-7519 + Tozasertib = compound: O=C(NC1CCNCC1)c1n[nH]cc1NC(=O)c1c(Cl)cccc1Cl [AT-7519] + Cc1cc(Nc2cc(N3CCN(C)CC3)nc(Sc3ccc(NC(=O)C4CC4)cc3)n2)n[nH]1 [Tozasertib] (partner 0.1 µM)
How it was run: as §1

PC-14
relative viability ([1]; first compound 0.08 µM): 0.369 | relative viability ([1]; first compound 0.253 µM): 0.333 | relative viability ([1]; first compound 0.8 µM): 0.322 | relative viability ([1]; first compound 2.53 µM): 0.357 | relative viability ([1]; first compound 8 µM): 0.329 | relative viability (AT-7519 + Alpelisib; first compound 0.01 µM): 0.839 | relative viability (AT-7519 + Alpelisib; first compound 0.03162 µM): 1 | relative viability (AT-7519 + Alpelisib; first compound 0.3162 µM): 1 | relative viability (AT-7519 + Alpelisib; first compound 1 µM): 0.912 | relative viability (AT-7519 + Olaparib; first compound 0.01 µM): 0.234 | relative viability (AT-7519 + Olaparib; first compound 0.03162 µM): 0.227 | relative viability (AT-7519 + Olaparib; first compound 0.3162 µM): 0.231 | relative viability (AT-7519 + Olaparib; first compound 1 µM): 0.104 | relative viability (AT-7519 + Tozasertib; first compound 0.01 µM): 0.591 | relative viability (AT-7519 + Tozasertib; first compound 0.03162 µM): 0.677 | relative viability (AT-7519 + Tozasertib; first compound 0.3162 µM): 0.526 | relative viability (AT-7519 + Tozasertib; first compound 1 µM): 0.392

RERF-LC-KJ
relative viability ([1]; first compound 0.08 µM): 0.873 | relative viability ([1]; first compound 0.253 µM): 0.851 | relative viability ([1]; first compound 0.8 µM): 0.854 | relative viability ([1]; first compound 2.53 µM): 0.835 | relative viability ([1]; first compound 8 µM): 0.788 | relative viability (AT-7519 + Alpelisib; first compound 0.01 µM): 0.787 | relative viability (AT-7519 + Alpelisib; first compound 0.03162 µM): 0.718 | relative viability (AT-7519 + Alpelisib; first compound 0.3162 µM): 0.768 | relative viability (AT-7519 + Alpelisib; first compound 1 µM): 0.537 | relative viability (AT-7519 + Olaparib; first compound 0.01 µM): 0.884 | relative viability (AT-7519 + Olaparib; first compound 0.03162 µM): 0.964 | relative viability (AT-7519 + Olaparib; first compound 0.3162 µM): 0.659 | relative viability (AT-7519 + Olaparib; first compound 1 µM): 0.242 | relative viability (AT-7519 + Tozasertib; first compound 0.01 µM): 0.426 | relative viability (AT-7519 + Tozasertib; first compound 0.03162 µM): 0.505 | relative viability (AT-7519 + Tozasertib; first compound 0.3162 µM): 0.5 | relative viability (AT-7519 + Tozasertib; first compound 1 µM): 0.204

SK-LU-1
relative viability ([1]; first compound 0.08 µM): 1.06 | relative viability ([1]; first compound 0.253 µM): 0.88 | relative viability ([1]; first compound 0.8 µM): 0.943 | relative viability ([1]; first compound 2.53 µM): 0.881 | relative viability ([1]; first compound 8 µM): 0.959 | relative viability (AT-7519 + Alpelisib; first compound 0.01 µM): 1.13 | relative viability (AT-7519 + Alpelisib; first compound 0.03162 µM): 0.94 | relative viability (AT-7519 + Alpelisib; first compound 0.3162 µM): 0.861 | relative viability (AT-7519 + Alpelisib; first compound 1 µM): 0.351 | relative viability (AT-7519 + Olaparib; first compound 0.01 µM): 0.462 | relative viability (AT-7519 + Olaparib; first compound 0.03162 µM): 0.458 | relative viability (AT-7519 + Olaparib; first compound 0.3162 µM): 0.489 | relative viability (AT-7519 + Olaparib; first compound 1 µM): 0.324 | relative viability (AT-7519 + Tozasertib; first compound 0.01 µM): 0.306 | relative viability (AT-7519 + Tozasertib; first compound 0.03162 µM): 0.364 | relative viability (AT-7519 + Tozasertib; first compound 0.3162 µM): 0.254 | relative viability (AT-7519 + Tozasertib; first compound 1 µM): 0.264

SK-MES-1
relative viability ([1]; first compound 0.08 µM): 0.482 | relative viability ([1]; first compound 0.253 µM): 0.444 | relative viability ([1]; first compound 0.8 µM): 0.468 | relative viability ([1]; first compound 2.53 µM): 0.464 | relative viability ([1]; first compound 8 µM): 0.546 | relative viability (AT-7519 + Alpelisib; first compound 0.01 µM): 0.839 | relative viability (AT-7519 + Alpelisib; first compound 0.03162 µM): 0.699 | relative viability (AT-7519 + Alpelisib; first compound 0.3162 µM): 0.86 | relative viability (AT-7519 + Alpelisib; first compound 1 µM): 0.397 | relative viability (AT-7519 + Olaparib; first compound 0.01 µM): 0.662 | relative viability (AT-7519 + Olaparib; first compound 0.03162 µM): 0.791 | relative viability (AT-7519 + Olaparib; first compound 0.3162 µM): 0.56 | relative viability (AT-7519 + Olaparib; first compound 1 µM): 0.257 | relative viability (AT-7519 + Tozasertib; first compound 0.01 µM): 0.928 | relative viability (AT-7519 + Tozasertib; first compound 0.03162 µM): 1 | relative viability (AT-7519 + Tozasertib; first compound 0.3162 µM): 0.814 | relative viability (AT-7519 + Tozasertib; first compound 1 µM): 0.243

SW 1573
relative viability ([1]; first compound 0.08 µM): 1.05 | relative viability ([1]; first compound 0.253 µM): 1 | relative viability ([1]; first compound 0.8 µM): 1.04 | relative viability ([1]; first compound 2.53 µM): 1.14 | relative viability ([1]; first compound 8 µM): 0.353 | relative viability (AT-7519 + Alpelisib; first compound 0.01 µM): 0.802 | relative viability (AT-7519 + Alpelisib; first compound 0.03162 µM): 0.739 | relative viability (AT-7519 + Alpelisib; first compound 0.3162 µM): 0.743 | relative viability (AT-7519 + Alpelisib; first compound 1 µM): 0.394 | relative viability (AT-7519 + Olaparib; first compound 0.01 µM): 0.463 | relative viability (AT-7519 + Olaparib; first compound 0.03162 µM): 0.505 | relative viability (AT-7519 + Olaparib; first compound 0.3162 µM): 0.2 | relative viability (AT-7519 + Olaparib; first compound 1 µM): 0.0972 | relative viability (AT-7519 + Tozasertib; first compound 0.01 µM): 0.151 | relative viability (AT-7519 + Tozasertib; first compound 0.03162 µM): 0.151 | relative viability (AT-7519 + Tozasertib; first compound 0.3162 µM): 0.143 | relative viability (AT-7519 + Tozasertib; first compound 1 µM): 0.125
